pIC50: −log10 of the molar value. Values joined by “and” are separate entries in the source; they are usually repeats but may differ in a detail not shown here. Equal entries are not always repeated.
What was measured:
Dog DHODH = Dog DHODH (Canis lupus familiaris, UniProt A0A8I3MWX2); test: Cell-free multi-species DHODH enzyme inhibition assay, dog; type: biochemical; settings: n=1
OCI-AML3 = test: MTS proliferation assay, OCI-AML3; type: cell-based; settings: Homo sapiens, OCI-AML-3; OCI-AML3, 96-hour treatment; read-out: IC50 (MTS proliferation)
Experimental: (§1) A total of 10,000–20,000 cells from different AML lines or 50,000–75,000 cells of primary AML blasts were treated in a 96-well plate for 72 hours or 96 hours at 37°C, 5% CO2. CellTiter 96 Aqueous MTS reagent (Promega) was added to cells followed by a 3-hour incubation at 37°C, 5% CO2. The absorbance was measured at 490 nm using DTX 880 plate reader, and the IC50 was calculated using GraphPad Prism.

THP1 = test: MTS proliferation assay, THP1; type: cell-based; settings: Homo sapiens, THP-1; THP1, 96-hour treatment; read-out: IC50 (MTS proliferation)
Experimental: as §1

[1] = test system: MOLM-13 disseminated CDX AML model; test: MOLM-13 CDX synergy with azacitidine / venetoclax; type: in vivo, NCG mice; settings: HOSU-53 4 mg/kg po qd; event 1 = death, 0 = censored; 4 mg/kg
Experimental: Female 8- to 12-week-old NCG mice were engrafted with 1 × 10^5 cells via tail vein i.v. injection. Four days postengraftment (day 1 of treatment), mice (n = 10/arm) were randomized to receive p.o. qd vehicle (40% HPβCD, n = 10; or 60% Phosal 50 PG, 30% PEG 400, and 10% ethanol, n = 10), 4 mg/kg HOSU-53, 25 mg/kg ven, or i.p. 1.5 mg/kg aza on a 5 days on/16 days off cycle, combinations of double regimens and triple regimens till moribundity or end of study, day 53.
Supplemental Figure S.4. […] Using the FLT3 […]
were enrolled to receive daily oral 4 mg/kg HOSU-53 to compare its monotherapy efficacy with daily oral 25 mg/kg venetoclax (ven) monotherapy or 1.5 mg/kg azacitidine (aza) HMA i.p. for five days every 16 days cycle monotherapy or the combination of aza/ven versus ven/ HOSU-53 versus aza/HOSU-53 versus the triple aza/ven/HOSU-53 regimen.

[2] = test system: primary AML patient samples; test: Flow cytometry viability, primary AML long-term culture; type: cell-based, human
Experimental: Cells were thawed in 50% FBS RPMI and then cultured in StemSpan (StemCell Technologies) media supplemented with human FLT3L, SCF, GM-CSF, G-CSF, IL-3, IL-6, TPO, and EPO cytokines for 7 days (LTC).
After 72 hours or 7 days of treatment of DHODHi, cells were collected and washed with PBS, blocked with human Fc block (BioLegend), and stained with antibodies for 30 minutes on ice. Antibodies were washed off and cells resuspended in FACS buffer (2% FBS, 2 mM NaN3, Dulbecco’s PBS) for analysis using BD LSRFortessa or Cytek Aurora spectral flow cytometer. Live/dead exclusion was done using LIVE/DEAD Fixable Near-IR (Invitrogen). All antibodies were purchased from BioLegend except CD47, which was purchased from BD Biosciences: CD11b clone M1/70, CD38 clone HIT2, CD14 clone M5E2, CD47 clone B6H12, CD33 clone WM53, CD3 clone UCHT1, CD19 clone HIB19, and CD45 clone HI30.
Supplemental Figure S.2. […] A).
Flow cytometry analysis of viable primary AML patient samples (n=10) treated in vitro for seven days
(long term culture, LTC). […]

[3] = Mini-Ames Mutagenicity Test; settings: CHO-WBL cells with and without S9 activation (so in the source)
Source text: Supplement jciinsight-9-173646-s083.xlsx, sheet "Supplemental Table S.2." | column: HOSU-53

[4] = HOSU-53 plasma exposure in MOLM-13 tumor-bearing mice; type: in vivo, NCG mice; settings: 10 mpk PO, female mice, per mouse, 10 mg/kg
plasma DHO = test: DHO plasma accumulation in MOLM-13 tumor-bearing mice; type: in vivo, NCG mice; set-up: unit not given here; settings: 10 mpk PO, female mice, per mouse, 10 mg/kg

Sequence of Dog DHODH (A0A8I3MWX2 1-406): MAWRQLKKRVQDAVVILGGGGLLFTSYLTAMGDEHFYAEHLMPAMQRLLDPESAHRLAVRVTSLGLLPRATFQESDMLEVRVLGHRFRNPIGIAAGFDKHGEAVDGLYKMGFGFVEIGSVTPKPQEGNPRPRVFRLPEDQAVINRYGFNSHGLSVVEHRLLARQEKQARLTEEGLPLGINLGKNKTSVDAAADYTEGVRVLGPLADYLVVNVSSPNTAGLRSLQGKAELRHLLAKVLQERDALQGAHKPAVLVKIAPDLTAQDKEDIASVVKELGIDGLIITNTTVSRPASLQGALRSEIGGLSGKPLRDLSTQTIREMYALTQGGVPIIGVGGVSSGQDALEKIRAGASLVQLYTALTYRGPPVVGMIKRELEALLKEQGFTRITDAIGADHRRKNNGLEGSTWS

CCCCOc1cccc(-c2ccc(-c3cc(C(=O)O)c4cc(F)ccc4n3)cc2)c1 [HOSU-53]
pIC50 (Dog DHODH): 8.90
pIC50 (OCI-AML3): 7.70
pIC50 (THP1): 7.30
Days of treatment (survival, per animal) [1]: 42 days and 40 days and 37 days and 41 days
% Live (Near-IR negative) ([2]; Pt.12, 50nM, DMSO 56.46): 60.99%
% Live (Near-IR negative) ([2]; Pt.12, 100nM, DMSO 56.46): 59.36%
% Live (Near-IR negative) ([2]; Pt.13, 50nM, DMSO 72.92): 72.53%
% Live (Near-IR negative) ([2]; Pt.13, 100nM, DMSO 72.92): 66.43%
% Live (Near-IR negative) ([2]; Pt.14, 50nM, DMSO 68.39): 70.9%
% Live (Near-IR negative) ([2]; Pt.14, 100nM, DMSO 68.39): 55.21%
% Live (Near-IR negative) ([2]; Pt.15, 50nM, DMSO 61.7): 41.58%
% Live (Near-IR negative) ([2]; Pt.15, 100nM, DMSO 61.7): 27.92%
% Live (Near-IR negative) ([2]; Pt.16, 50nM, DMSO 45.99): 41.34%
% Live (Near-IR negative) ([2]; Pt.16, 100nM, DMSO 45.99): 32.16%
% Live (Near-IR negative) ([2]; Pt.17, 50nM, DMSO 29.84): 29.21%
% Live (Near-IR negative) ([2]; Pt.17, 100nM, DMSO 29.84): 25.94%
% Live (Near-IR negative) ([2]; Pt.18, 50nM, DMSO 29.72): 26.96%
% Live (Near-IR negative) ([2]; Pt.18, 100nM, DMSO 29.72): 23.34%
% Live (Near-IR negative) ([2]; Pt.19, 50nM, DMSO 75.66): 74.9%
% Live (Near-IR negative) ([2]; Pt.19, 100nM, DMSO 75.66): 58.74%
% Live (Near-IR negative) ([2]; Pt.20, 50nM, DMSO 67.67): 44.64%
% Live (Near-IR negative) ([2]; Pt.20, 100nM, DMSO 67.67): 42.59%
% Live (Near-IR negative) ([2]; Pt.2, 50nM, DMSO 78.52): 59.04%
% Live (Near-IR negative) ([2]; Pt.2, 100nM, DMSO 78.52): 32.63%
cell viability ([2]; primary AML samples, 7 days LTC): reduced cell viability
Mini-Ames Mutagenicity Test [3]: Negative
HOSU-53 AUCall ([4]; Day 1): 2462.63 µM·h and 1961.3 µM·h
HOSU-53 AUCall ([4]; Day 14): 3818.57 µM·h and 3432.74 µM·h
DHO AUC (Figure 3C y value) (plasma DHO; Day 1): 242.955 and 321.59 and 315.332
DHO AUC (Figure 3C y value) (plasma DHO; Day 14): 411.662 and 445.373 and 347.096

Source: article PMC11141866, “Pyrimidine depletion enhances targeted and immune therapy combinations in acute myeloid leukemia” (JCI Insight, 2024)
